In patent publication US20230085307A1, “PYRIDAZINONE COMPOUND AND HERBICIDE” (NISSAN CHEMICAL CORPORATION, priority 2019, published 2023):

How the values were obtained:
blackgrass [1] = assay: Test Example 4: herbicidal effect by soil treatment (Table 19, symbol J); format: in vivo, blackgrass (Alopecurus myosuroides)
In short: (§1)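 Applied as a water-diluted emulsion, the compound was sprayed onto soil covering newly sown seeds. Evaluation came three weeks after application, in a greenhouse held at 25° C. to 30° C.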

Japanese bulrush = assay: Test Example 1: herbicidal activity, application before weed generation under submerged conditions (Table 16, symbol B); format: in vivo, Japanese bulrush (Schoenoplectus juncoides)
In short: (§2)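 Emulsion formulation, water-diluted to set dose, was put onto the flooded surface (4 cm depth, alluvial soil) the same day weeds were sown and 2.5-leaf rice transplanted. After 3 weeks at 25-30 °C under glass, each species was rated 0 (≤5% kill) to 5 (≥90% kill).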

Italian ryegrass [2] = assay: Test Example 5: herbicidal effect by foliage application, plastic box (Table 20, symbol K); format: in vivo, Italian ryegrass (Lolium multiflorum); conditions: foliage application, evaluated three weeks after application
In short: (§3)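 Sow seeds spot-wise in sterilized diluvial soil; cover with ~1.5 cm soil. Grow 14 days in greenhouse, 25° C. to 30° C. Spray foliage with emulsion diluted to predetermined amount. Rate effect after 3 weeks.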

green foxtail [3] = assay: Test Example 4: herbicidal effect by soil treatment (Table 19, symbol G); format: in vivo, green foxtail (Setaria viridis)
In short: as §1

lambsquarters [4] = assay: Test Example 4: herbicidal effect by soil treatment (Table 19, symbol O); format: in vivo, lambsquarters (Chenopodium album)
In short: as §1

wild oat [5] = assay: Test Example 4: herbicidal effect by soil treatment (Table 19, symbol I); format: in vivo, wild oat (Avena fatua)
In short: as §1

wild oat [6] = assay: Test Example 5: herbicidal effect by foliage application, plastic box (Table 20, symbol I); format: in vivo, wild oat (Avena fatua); conditions: foliage application, evaluated three weeks after application
In short: as §3

windgrass [7] = assay: Test Example 5: herbicidal effect by foliage application, plastic box (Table 20, symbol L); format: in vivo, windgrass (Apera spica-venti); conditions: foliage application, 176 g/ha, evaluated three weeks after application
In short: as §3

southern crabgrass [8] = assay: Test Example 5: herbicidal effect by foliage application, plastic box (Table 20, symbol F); format: in vivo, southern crabgrass (Digitaria ciliaris); conditions: foliage application, evaluated three weeks after application
In short: as §3

chickweed [9] = assay: Test Example 5: herbicidal effect by foliage application, plastic box (Table 20, symbol P); format: in vivo, common chickweed (Stellaria media); conditions: foliage application, evaluated three weeks after application
In short: as §3

blackgrass [10] = assay: Test Example 5: herbicidal effect by foliage application, plastic box (Table 20, symbol J); format: in vivo, blackgrass (Alopecurus myosuroides); conditions: foliage application, evaluated three weeks after application
In short: as §3

late watergrass = assay: Test Example 1: herbicidal activity, application before weed generation under submerged conditions (Table 16, symbol A); format: in vivo, late watergrass (Echinochloa oryzicola)
In short: as §2

lambsquarters [11] = assay: Test Example 5: herbicidal effect by foliage application, plastic box (Table 20, symbol O); format: in vivo, lambsquarters (Chenopodium album); conditions: foliage application, evaluated three weeks after application
In short: as §3

velvetleaf [12] = assay: Test Example 5: herbicidal effect by foliage application, plastic box (Table 20, symbol M); format: in vivo, velvetleaf (Abutilon theophrasti); conditions: foliage application, evaluated three weeks after application
In short: as §3

barnyard grass [13] = assay: Test Example 3: herbicidal effect by foliage application, Wagner pot (Table 18, symbol H); format: in vivo, barnyard grass (Echinochloa crus-galli)
In short: (§4)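 Plants were sown in alluvial soil held under 0.1–0.5 cm standing water and grown 14 days in a greenhouse at 25–30 °C. An emulsifiable formulation, water-diluted to the set dose, was then sprayed onto the foliage, and effects were scored three weeks later using previously defined criteria.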

oval-leafed pondweed = assay: Test Example 1: herbicidal activity, application before weed generation under submerged conditions (Table 16, symbol C); format: in vivo, oval-leafed pondweed (Monochoria vaginalis)
In short: as §2

velvetleaf [14] = assay: Test Example 4: herbicidal effect by soil treatment (Table 19, symbol M); format: in vivo, velvetleaf (Abutilon theophrasti)
In short: as §1

Chinese sprangletop = assay: Test Example 3: herbicidal effect by foliage application, Wagner pot (Table 18, symbol D); format: in vivo, chinese sprangletop (Leptochloa chinensis)
In short: as §4

green foxtail [15] = assay: Test Example 5: herbicidal effect by foliage application, plastic box (Table 20, symbol G); format: in vivo, green foxtail (Setaria viridis); conditions: foliage application, evaluated three weeks after application
In short: as §3

persian speedwell [16] = assay: Test Example 5: herbicidal effect by foliage application, plastic box (Table 20, symbol R); format: in vivo, Persian speedwell (Veronica persica); conditions: foliage application, evaluated three weeks after application
In short: as §3

persian speedwell [17] = assay: Test Example 4: herbicidal effect by soil treatment (Table 19, symbol R); format: in vivo, Persian speedwell (Veronica persica)
In short: as §1

windgrass [18] = assay: Test Example 4: herbicidal effect by soil treatment (Table 19, symbol L); format: in vivo, windgrass (Apera spica-venti)
In short: as §1

rice flat sedge = assay: Test Example 3: herbicidal effect by foliage application, Wagner pot (Table 18, symbol E); format: in vivo, rice flat sedge (Cyperus iria)
In short: as §4

chickweed [19] = assay: Test Example 4: herbicidal effect by soil treatment (Table 19, symbol P); format: in vivo, common chickweed (Stellaria media)
In short: as §1

Italian ryegrass [20] = assay: Test Example 4: herbicidal effect by soil treatment (Table 19, symbol K); format: in vivo, Italian ryegrass (Lolium multiflorum)
In short: as §1

redroot pigweed [21] = assay: Test Example 5: herbicidal effect by foliage application, plastic box (Table 20, symbol N); format: in vivo, redroot pigweed (Amaranthus retroflexus); conditions: foliage application, evaluated three weeks after application
In short: as §3

barnyard grass [22] = assay: Test Example 5: herbicidal effect by foliage application, plastic box (Table 20, symbol H); format: in vivo, barnyard grass (Echinochloa crus-galli); conditions: foliage application, evaluated three weeks after application
In short: as §3

southern crabgrass [23] = assay: Test Example 4: herbicidal effect by soil treatment (Table 19, symbol F); format: in vivo, southern crabgrass (Digitaria ciliaris)
In short: as §1

barnyard grass [24] = assay: Test Example 4: herbicidal effect by soil treatment (Table 19, symbol H); format: in vivo, barnyard grass (Echinochloa crus-galli)
In short: as §1

redroot pigweed [25] = assay: Test Example 4: herbicidal effect by soil treatment (Table 19, symbol N); format: in vivo, redroot pigweed (Amaranthus retroflexus); conditions: amount of applied herbicide 320 g/ha
In short: as §1

[26] = amount of applied herbicide 176 g/ha
[27] = amount of applied herbicide 320 g/ha

COc1ccccc1-c1sc2ccc(C)cc2c1-c1c(O)c(C)nn(C)c1=O [2-138]
J: blackgrass, herbicidal effect rating (blackgrass [1]; [26]): 3 (Herbicidal rate of 40% or more and less than 70%)
Herbicidal effect on B: Japanese bulrush (grade 0-5) (Japanese bulrush; 176 g/ha applied herbicide): 0 (Herbicidal rate of 5% or less (almost no effect))
herbicidal effect on K: Italian ryegrass (Italian ryegrass [2]; 176 g/ha): 3 (Herbicidal rate of 40% or more and less than 70%)
G: green foxtail, herbicidal effect rating (green foxtail [3]; [26]): 4 (Herbicidal rate of 70% or more and less than 90%)
O: lambsquarters, herbicidal effect rating (lambsquarters [4]; [26]): 5 (Herbicidal rate of 90% or more (almost completely withered))
I: wild oat, herbicidal effect rating (wild oat [5]; [26]): 0 (Herbicidal rate of 5% or less (almost no effect))
herbicidal effect on I: wild oat (wild oat [6]; 176 g/ha): 0 (Herbicidal rate of 5% or less (almost no effect))
herbicidal effect on L: windgrass (windgrass [7]): 4 (Herbicidal rate of 70% or more and less than 90%)
herbicidal effect on F: southern crabgrass (southern crabgrass [8]; 176 g/ha): 3 (Herbicidal rate of 40% or more and less than 70%)
herbicidal effect on P: chickweed (chickweed [9]; 176 g/ha): 5 (Herbicidal rate of 90% or more (almost completely withered))
herbicidal effect on J: blackgrass (blackgrass [10]; 176 g/ha): 3 (Herbicidal rate of 40% or more and less than 70%)
Herbicidal effect on A: late watergrass (grade 0-5) (late watergrass; 176 g/ha applied herbicide): 5 (Herbicidal rate of 90% or more (almost completely withered))
herbicidal effect on O: lambsquarters (lambsquarters [11]; 176 g/ha): 4 (Herbicidal rate of 70% or more and less than 90%)
herbicidal effect on M: velvetleaf (velvetleaf [12]; 176 g/ha): 5 (Herbicidal rate of 90% or more (almost completely withered))
herbicidal effect on H: barnyard grass (barnyard grass [13]; [26]): 5 (Herbicidal rate of 90% or more (almost completely withered))
Herbicidal effect on C: oval-leafed pondweed (grade 0-5) (oval-leafed pondweed; 176 g/ha applied herbicide): 0 (Herbicidal rate of 5% or less (almost no effect))
M: velvetleaf, herbicidal effect rating (velvetleaf [14]; [26]): 0 (Herbicidal rate of 5% or less (almost no effect))
herbicidal effect on D: Chinese sprangletop (Chinese sprangletop; [26]): 1 (Herbicidal rate of 5% or more and less than 20%)
herbicidal effect on G: green foxtail (green foxtail [15]; 176 g/ha): 4 (Herbicidal rate of 70% or more and less than 90%)
herbicidal effect on R: persian speedwell (persian speedwell [16]; 176 g/ha): 5 (Herbicidal rate of 90% or more (almost completely withered))
R: persian speedwell, herbicidal effect rating (persian speedwell [17]; [26]): 0 (Herbicidal rate of 5% or less (almost no effect))
L: windgrass, herbicidal effect rating (windgrass [18]; [26]): 0 (Herbicidal rate of 5% or less (almost no effect))
herbicidal effect on E: rice flat sedge (rice flat sedge; [26]): 4 (Herbicidal rate of 70% or more and less than 90%)
P: chickweed, herbicidal effect rating (chickweed [19]; [26]): 0 (Herbicidal rate of 5% or less (almost no effect))
K: Italian ryegrass, herbicidal effect rating (Italian ryegrass [20]; [26]): 0 (Herbicidal rate of 5% or less (almost no effect))
herbicidal effect on N: redroot pigweed (redroot pigweed [21]; 176 g/ha): 0 (Herbicidal rate of 5% or less (almost no effect))
herbicidal effect on H: barnyard grass (barnyard grass [22]; 176 g/ha): 4 (Herbicidal rate of 70% or more and less than 90%)
F: southern crabgrass, herbicidal effect rating (southern crabgrass [23]; [26]): 0 (Herbicidal rate of 5% or less (almost no effect))
H: barnyard grass, herbicidal effect rating (barnyard grass [24]; [26]): 3 (Herbicidal rate of 40% or more and less than 70%)

Cc1nn(C)c(=O)c(-c2c(-c3ccc(C(C)(C)C)cc3)sc3ccc(F)cc23)c1O [2-208]
J: blackgrass, herbicidal effect rating (blackgrass [1]; [27]): 0 (Herbicidal rate of 5% or less (almost no effect))
Herbicidal effect on B: Japanese bulrush (grade 0-5) (Japanese bulrush; 320 g/ha applied herbicide): 2 (Herbicidal rate of 20% or more and less than 40%)
herbicidal effect on K: Italian ryegrass (criteria 0-5) (Italian ryegrass [2]; 320 g/ha): 0 (Herbicidal rate of 5% or less (almost no effect))
G: green foxtail, herbicidal effect rating (green foxtail [3]; [27]): 0 (Herbicidal rate of 5% or less (almost no effect))
O: lambsquarters, herbicidal effect rating (lambsquarters [4]; [27]): 2 (Herbicidal rate of 20% or more and less than 40%)
I: wild oat, herbicidal effect rating (wild oat [5]; [27]): 0 (Herbicidal rate of 5% or less (almost no effect))
herbicidal effect on I: wild oat (criteria 0-5) (wild oat [6]; 320 g/ha): 0 (Herbicidal rate of 5% or less (almost no effect))
herbicidal effect on F: southern crabgrass (criteria 0-5) (southern crabgrass [8]; 320 g/ha): 3 (Herbicidal rate of 40% or more and less than 70%)
herbicidal effect on P: chickweed (criteria 0-5) (chickweed [9]; 320 g/ha): 5 (Herbicidal rate of 90% or more (almost completely withered))
herbicidal effect on J: blackgrass (criteria 0-5) (blackgrass [10]; 320 g/ha): 0 (Herbicidal rate of 5% or less (almost no effect))
Herbicidal effect on A: late watergrass (grade 0-5) (late watergrass; 320 g/ha applied herbicide): 0 (Herbicidal rate of 5% or less (almost no effect))
herbicidal effect on O: lambsquarters (criteria 0-5) (lambsquarters [11]; 320 g/ha): 0 (Herbicidal rate of 5% or less (almost no effect))
herbicidal effect on M: velvetleaf (criteria 0-5) (velvetleaf [12]; 320 g/ha): 2 (Herbicidal rate of 20% or more and less than 40%)
herbicidal effect on H: barnyard grass (barnyard grass [13]; [27]): 5 (Herbicidal rate of 90% or more (almost completely withered))
Herbicidal effect on C: oval-leafed pondweed (grade 0-5) (oval-leafed pondweed; 320 g/ha applied herbicide): 0 (Herbicidal rate of 5% or less (almost no effect))
M: velvetleaf, herbicidal effect rating (velvetleaf [14]; [27]): 1 (Herbicidal rate of 5% or more and less than 20%)
herbicidal effect on D: Chinese sprangletop (Chinese sprangletop; [27]): 5 (Herbicidal rate of 90% or more (almost completely withered))
N: redroot pigweed, herbicidal effect rating (redroot pigweed [25]): 0 (Herbicidal rate of 5% or less (almost no effect))
herbicidal effect on G: green foxtail (criteria 0-5) (green foxtail [15]; 320 g/ha): 2 (Herbicidal rate of 20% or more and less than 40%)
herbicidal effect on R: persian speedwell (criteria 0-5) (persian speedwell [16]; 320 g/ha): 5 (Herbicidal rate of 90% or more (almost completely withered))
R: persian speedwell, herbicidal effect rating (persian speedwell [17]; [27]): 0 (Herbicidal rate of 5% or less (almost no effect))
L: windgrass, herbicidal effect rating (windgrass [18]; [27]): 0 (Herbicidal rate of 5% or less (almost no effect))
herbicidal effect on E: rice flat sedge (rice flat sedge; [27]): 5 (Herbicidal rate of 90% or more (almost completely withered))
P: chickweed, herbicidal effect rating (chickweed [19]; [27]): 0 (Herbicidal rate of 5% or less (almost no effect))
K: Italian ryegrass, herbicidal effect rating (Italian ryegrass [20]; [27]): 0 (Herbicidal rate of 5% or less (almost no effect))
herbicidal effect on N: redroot pigweed (criteria 0-5) (redroot pigweed [21]; 320 g/ha): 3 (Herbicidal rate of 40% or more and less than 70%)
herbicidal effect on H: barnyard grass (criteria 0-5) (barnyard grass [22]; 320 g/ha): 5 (Herbicidal rate of 90% or more (almost completely withered))
F: southern crabgrass, herbicidal effect rating (southern crabgrass [23]; [27]): 3 (Herbicidal rate of 40% or more and less than 70%)
H: barnyard grass, herbicidal effect rating (barnyard grass [24]; [27]): 0 (Herbicidal rate of 5% or less (almost no effect))
